Reference: patent US20180200233A1, “COMPOSITIONS FOR PREVENTING CANCERS ASSOCIATED WITH HUMAN PAPILLOMA VIRUSES” (Loma Linda University, priority 2015, published 2018)

What was measured:
[1] = tested on: caspase 8 level in SiHa cells; test: Immunoblot of caspase 8 level in SiHa cells; assay type: cell-based, human; conditions: 50, 100 and 200 μM for 24 hr
Experimental: FIGS. 6A-B is an immunoblot and FIG. 6B is a graph showing that treatment with myricetin and spinacine (5) increased cellular levels of caspase 8 and p53. (FIG. 6A) SiHa cells (1×10^6 per well) were seeded into a 6-well plate and allowed to incubate overnight. The indicated concentrations of myricetin and spinacine were added, then cells were incubated for 24 h. Cells were then washed in 1×PBS, then harvested and the resulting level of caspase 8 was measured by immunoblot. (FIG. 6B) SiHa and C33A cells (1×10^6 per well) were seeded into a 6-well plate and allowed to incubate overnight. 200 μM of myricetin and 100 μM spinacine were added together with 4 μg/ml mitomycin C and incubated for 24 h. The resulting level of p53 was measured by ELISA, and the level of p53 found in untreated cells was set at 100%. […]
If this ability is due to inhibition of E6 functions, then an increase in the levels of caspase 8 and p53 should be observable in SiHa cells following treatment with myricetin and spinacine. To test this prediction, SiHa cells were treated with 50, 100, and 200 μM of myricetin or spinacine for 24 hr, and then measured the level of caspase 8 by immunoblot. […]
Cells (1×10^6) were collected and washed with PBS. […] Signals were measured using the Odyssey Infrared Imaging system (LI-COR Biosciences) and expressed in relative light units.

[2] = biological target: T1, GST-caspase 8/His-caspase 8 (Homo sapiens, UniProt Q14790); test: AlphaScreen counter-screen, GST-caspase 8/His-caspase 8 binding; conditions: for EC50 for GST-caspase 8/His-caspase 8 interaction: compounds tested 1.4 μM to 3.2 mM
T1 construct: pTriEx-Caspase-8 DED plasmids; fused on or other part: GST tag on one copy, His tag on the other (AlphaScreen bead handles)
T1 sequence (Q14790 whole entry, the tested form may be a part): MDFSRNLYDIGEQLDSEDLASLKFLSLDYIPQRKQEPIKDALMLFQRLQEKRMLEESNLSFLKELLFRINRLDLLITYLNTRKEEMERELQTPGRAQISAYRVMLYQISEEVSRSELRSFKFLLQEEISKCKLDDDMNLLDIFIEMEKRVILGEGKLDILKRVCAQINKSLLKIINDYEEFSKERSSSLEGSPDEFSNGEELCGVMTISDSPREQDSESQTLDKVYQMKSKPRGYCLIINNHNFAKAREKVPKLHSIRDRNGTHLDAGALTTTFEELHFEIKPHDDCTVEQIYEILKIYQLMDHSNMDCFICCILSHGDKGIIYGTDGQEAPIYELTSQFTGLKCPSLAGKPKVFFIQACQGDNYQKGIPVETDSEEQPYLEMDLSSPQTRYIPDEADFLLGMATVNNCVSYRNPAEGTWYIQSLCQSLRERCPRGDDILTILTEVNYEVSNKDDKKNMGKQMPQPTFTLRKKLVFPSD
Experimental: FIGS. 2A-C are graphs providing data regarding inhibition of protein-protein interactions by 3-(1H-indol-1yl)propan-1-amine (1), three benzimidazole derivatives (2-4), and spinacine (5). Compounds, at the indicated concentrations (1.4 μM to 3.2 mM) were tested using a bead-based screening assay for their ability to inhibit three different protein/protein interactions: (FIG. 2A) GST-E6/His-caspase 8; (FIG. 2B) GST-E6/HisE6AP; and (FIG. 2C) GST-caspase 8/His-caspase 8. Binding in the presence of 1.4 μM of the test compound was set at 100%. Experiments were performed in triplicate, and error bars indicate the standard deviation.
To ask whether this inhibition was specific, a counter-screening assay was employed the ability of candidates to inhibit the binding of GST-caspase 8 to His-caspase 8 was assessed; those that did were to be eliminated. In this counter-screening assay, the materials in each well were the same as in the primary screen, with the exception that GST-caspase 8 replaced GST-E6.
Alpha-Screen™ technology was used to assess the interactions between GST-E6, GST-caspase 8, His-E6AP, and His-caspase 8. Binding assays were performed in white 384-well plates (Perkin-Elmer) in a total volume of 25 μl as previously described (Tungteakkhun, S. S., et al., The interaction between human papillomavirus type 16 and FADD is mediated by a novel E6 binding domain. Journal of virology, 2008. 82(19): p. 9600-14). Briefly, 5 μl (50 ng) of GST-E6 and 5 μl (87.5 ng) of His-caspase 8 were included in each reaction mixture with 5 μl blocking buffer (0.5 mg BSA, 0.5% Tween 20 in PBS) in the absence or presence of 10 μM of each test chemical. Members of the library were present at […] in DMSO. After a one-hour incubation of the mixture at room temperature, 5 μl donor beads and 5 μl acceptor beads (Perkin-Elmer) were added to each well according to the manufacturer's protocol. The mixture was incubated in the dark at room temperature overnight, and the emitted signal was detected using the Envision Multilabel plate reader (Perkin-Elmer). In the presence of test chemicals, the binding affinity was calculated as a percentage of the binding in the presence of carrier only (DMSO).

O=c1c(O)c(-c2cc(O)c(O)c(O)c2)oc2cc(O)cc(O)c12 [Myricetin, reference compound]
caspase 8 levels in SiHa cells (in words) [1]: increase in caspase 8 levels at doses of 100 μM and 200 μM

OCn1cnc2ccccc21 [Compound 3, 1H-benzimidazole-1-methanol]
EC50 for GST-caspase 8/His-caspase 8 interaction [2]: No Inhibition

O=C(O)C1Cc2[nH]cnc2CN1 (centres unmarked) [Compound 5, 4,5,6,7-Tetrahydro-1H-imidazo(4,5-c)pyridine-6-carboxylic acid]
inhibition of caspase 8/caspase 8 interaction (in words) ([2]; FIG. 2C): did not significantly inhibit | EC50 for GST-caspase 8/His-caspase 8 interaction [2]: No | caspase 8 levels in SiHa cells (in words) [1]: increase in caspase 8 at doses from 50 to 200 μM
